# Data reported in patent US7358044B2, “Prophylactic and therapeutic benefits of a new class of immune stimulating peptides” (priority 2003, dated 2008).
# Marks after values point to notes of the source that are not given here.
# Experiments:
# clinical mastitis = assay: Clinical mastitis, ICPF versus Polyflex; assay type: in vivo, bovine
# Method: Nineteen animals were showing signs of clinical mastitis, i.e. abnormal milk appearance, painful teat, etc. These animals were randomly assigned to either a test or a control group. The control group animals (n=10) were treated according to the dairy's normal practice for treatment of clinical cases of mastitis, i.e. intramuscular injection of Polyflex brand (Fort Dodge Animal Health) of ampicillin (5 mg/lb×3 days). […] The SCC's for the treatment and control animals were compared 30 days later. The means of the pre-treatment test and control groups were determined to not be statistically different and neither were the standard deviations of the two groups statistically different. […] Two animals in the test group were refractory to treatment.
# J774A.1 macrophages = assay: Macrophage activation, NO production (Greiss reagent); assay type: cell-based
# Method: J774A.1 macrophages (ATCC TIB67, 5×10^4 viable cells/well) were cultured in Dulbecco's Modified Eagle Medium (DMEM, high glucose)+10% FBS+100 U/ml penicillin+100 μg/ml streptomycin for 24 hr prior to treatment addition. NO production was determined colorimetrically using the Greiss reagent 24 hr after experimental treatments. […] Statistical significance was analyzed by comparison of mean values using the Student's t test (unpaired, two-tailed).
# NK cells = assay: NK cell activity of splenocytes from treated mice, chromium-release assay; assay type: in vivo
# Text: The results are depicted in Table 2.
# [1] = 0.25 ml i.p. (5 mg ICPF or 20 μg Poly I:C), spleens harvested the following day, mean n = 3 with standard error
compound,measurement,setting,value
"CC1(C)S[C@@H]2[C@H](NC(=O)[C@H](N)c3ccccc3)C(=O)N2[C@H]1C(=O)O [Polyflex, ampicillin]",animals that showed improvement,"clinical mastitis; 30 days, Polyflex 5 mg/lb x 3 days i.m. (n=10)",one
same,average somatic cell count for the group increased by,"clinical mastitis; Polyflex 5 mg/lb x 3 days i.m., n=10, test period",7%
ICPF-peptide: Purified peptide from ICPF (RSVSLSYRF),induction of NO in combination with LPS,J774A.1 macrophages; ICPF 100 μg/ml or ICPF-peptide 10 μg/ml with LPS 0-10 μg/ml in the absence of IFN-γ,unable to induce NO
same,amount of NO induced by the minimal stimulatory dose of LPS + IFN-γ,"J774A.1 macrophages; ICPF-peptide 0.1-100 μg/ml, LPS 10 ng/ml + IFN-γ 1-5 U/ml",did not modulate the amount of NO
same,dose of LPS required to induce NO,"J774A.1 macrophages; IFN-γ stimulated macrophages, ICPF 100 μg/ml, ICPF-peptide 10 μg/ml",Neither ICPF (100 μg/ml) nor ICPF-peptide (10 μg/ml) altered the dose of LPS required to induce NO
same,dose of IFN-γ required to induce NO,"J774A.1 macrophages; LPS-stimulated macrophages, ICPF 100 μg/ml, ICPF-peptide 10 μg/ml",Neither ICPF (100 μg/ml) nor ICPF-peptide (10 μg/ml) altered the dose of IFN-γ required to induce NO
same,induction of NO,"J774A.1 macrophages; purified peptide 0.1-100 μg/ml, absence or presence of IFN-γ",failed to induce NO
Poly I:C,Percent 51Cr released at E:T ratios 50:1,NK cells; [1],19.1 ± 1.0^b Percent
same,Percent 51Cr released at E:T ratios 100:1,NK cells; [1],31.5 ± 1.1^b Percent
same,Percent 51Cr released at E:T ratios 200:1,NK cells; [1],35.3 ± 1.6^b Percent
same,direct activation of NK cells,"NK cells; naive mice, E:T ratios of 200:1, 100:1, and 50:1",induced activation of NK cells
